Assay results reported in patent publication US8273774B2, “Phenoxypyridinylamide compounds” (AstraZeneca AB, priority 2008, dated 2012).
Where a name gives a salt, the structure may show the parent alone.

Each compound was assayed against recombinant Human Phosphodiesterase B2 (PDE4B2) (Homo sapiens, UniProt Q07343) (assay: Human Phosphodiesterase B2 Radiometric Assay). Settings: 0.1 μg/mL recombinant PDE4B2; preincubated at 30 C for 30 min; [3H]cyclic AMP 8 nM, stopped after 20 min; yttrium silicate SPA beads; read-out: PDE4B2 pIC50 (converted).
Type: biochemical
Procedure: Human Phosphodiesterase B2 Radiometric Assay
The assay uses recombinant Human Phosphodiesterase B2 (PDE4B2) produced in house (PrAZL0163), stored at −20° C. This assay is based on the observation that 5′AMP, the product of the reaction catalysed by PDE4, binds preferentially to yttrium silicate SPA beads (Amersham Biosciences, UK) compared to the substrate, cAMP. Compounds at the appropriate concentration were preincubated at 30 C for 30 min with an assay buffer containing 50 mM HEPES (pH 7.5), 8.3 mM MgCl2, 1.7 mM EGTA, 0.01% (w/v) Brij®35 and 0.1 μg/mL recombinant PDE4B2. The reaction was started by the addition of [3H]cyclic AMP to give a final concentration of 8 nM, and was stopped 20 min after the addition of the substrate by the addition of yttrium silicate SPA beads containing 18 mM Zn SO4. Bound […] was measured using a Topcount NXT (Packard Bioscience, UK). pIC50 values (presented in Table 2) were determined using Xlfit3 curve fitting, using model 205.

recombinant Human Phosphodiesterase B2 (PDE4B2), sequence (Q07343 1-564 isoform Q07343-2): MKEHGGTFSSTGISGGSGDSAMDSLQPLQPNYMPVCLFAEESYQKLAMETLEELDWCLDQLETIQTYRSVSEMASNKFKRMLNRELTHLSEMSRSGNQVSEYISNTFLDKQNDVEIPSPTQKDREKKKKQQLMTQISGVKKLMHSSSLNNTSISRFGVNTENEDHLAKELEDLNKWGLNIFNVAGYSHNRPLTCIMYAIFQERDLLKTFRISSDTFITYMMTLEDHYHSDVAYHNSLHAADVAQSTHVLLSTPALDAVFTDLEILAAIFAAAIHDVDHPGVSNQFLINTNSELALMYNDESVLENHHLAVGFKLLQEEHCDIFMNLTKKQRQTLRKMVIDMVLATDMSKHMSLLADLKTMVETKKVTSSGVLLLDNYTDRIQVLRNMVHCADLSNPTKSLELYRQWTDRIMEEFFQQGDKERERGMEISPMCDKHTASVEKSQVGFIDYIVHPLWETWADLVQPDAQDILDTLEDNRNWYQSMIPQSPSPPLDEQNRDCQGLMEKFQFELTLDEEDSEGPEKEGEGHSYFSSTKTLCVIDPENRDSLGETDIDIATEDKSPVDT

Row | SMILES | IC50
1 | O=C(N[C@H]1CC[C@@H](NC(=O)c2cc(F)cnc2Oc2cccc(-c3ccc(CN4CCNCC4)cc3)c2)CC1)c1cn2c(n1)CCCC2 [Example 1, N-((1s,4s)-4-(5-fluoro-2-(4′-(piperazin-1-ylmethyl)biphenyl-3-yloxy)nicotinamido)cyclohexyl)-5,6,7,8-tetrahydroimidazo[1,2-a]pyridine-2-carboxamide] | 0.126 nM
2 | Cc1cc(CN[C@H]2CC[C@@H](NC(=O)c3cc(F)cnc3Oc3cccc(-c4ccc(O)cc4CN4CCOCC4)c3)CC2)nn1C [Example 3, N-((1s,4s)-4-((1,5-dimethyl-1H-pyrazol-3-yl)methylamino)cyclohexyl)-5-fluoro-2-(4′-hydroxy-2′-(morpholinomethyl)biphenyl-3-yloxy)nicotinamide trifluoroacetate] | 1.26 nM
3 | Cc1cc(CN(Cc2cc(C)n(C)n2)[C@H]2CC[C@@H](NC(=O)c3cc(F)cnc3Oc3cccc(-c4ccc(O)cc4CN4CCOCC4)c3)CC2)nn1C [Example 4, N-((1s,4s)-4-(bis((1,5-dimethyl-1H-pyrazol-3-yl)methyl)amino)cyclohexyl)-5-fluoro-2-(4′-hydroxy-2′-(morpholinomethyl)biphenyl-3-yloxy)nicotinamide trifluoroacetate] | 63.1 nM
4 | Cc1nc(CN[C@H]2CC[C@@H](NC(=O)c3cc(F)cnc3Oc3cccc(-c4ccc(O)cc4CN4CCOCC4)c3)CC2)cs1 [Example 5, 5-fluoro-2-(4′-hydroxy-2′-(morpholinomethyl)biphenyl-3-yloxy)-N-((1s,4s)-4-((2-methylthiazol-4-yl)methylamino)cyclohexyl)nicotinamide] | 5.01 nM
5 | Cc1cccc(CN[C@H]2CC[C@@H](NC(=O)c3cc(F)cnc3Oc3cccc(-c4ccc(O)cc4CN4CCOCC4)c3)CC2)n1 [Example 6, 5-fluoro-2-(4′-hydroxy-2′-(morpholinomethyl)biphenyl-3-yloxy)-N-((1s,4s)-4-((6-methylpyridin-2-yl)methylamino)cyclohexyl)nicotinamide] | 3.16 nM
6 | Cc1ccc(O)c(CN[C@H]2CC[C@@H](NC(=O)c3cc(F)cnc3Oc3cccc(-c4ccc(O)cc4CN4CCOCC4)c3)CC2)c1 [Example 7, 5-fluoro-2-(4′-hydroxy-2′-(morpholinomethyl)biphenyl-3-yloxy)-N-((1s,4s)-4-(2-hydroxy-5-methylbenzylamino)cyclohexyl)nicotinamide] | 6.31 nM
7 | Cc1cccc2nc(CN[C@H]3CC[C@@H](NC(=O)c4cc(F)cnc4Oc4cccc(-c5ccc(O)cc5CN5CCOCC5)c4)CC3)cn12 [Example 8, 5-fluoro-2-(4′-hydroxy-2′-(morpholinomethyl)biphenyl-3-yloxy)-N-((1s,4s)-4-((5-methylimidazo[1,2-a]pyridin-2-yl)methylamino)cyclohexyl)nicotinamide] | 0.631 nM
8 | Cc1nc(C(=O)N[C@H]2CC[C@@H](NC(=O)c3cc(F)cnc3Oc3cccc(-c4ccc(O)cc4CN(C)C)c3)CC2)cs1 [Example 9, N-((1s,4s)-4-(2-(2′-((dimethylamino)methyl)-4′-hydroxybiphenyl-3-yloxy)-5-fluoronicotinamido)cyclohexyl)-2-methylthiazole-4-carboxamide] | 0.0316 nM
9 | Cc1cccc(C(=O)N[C@H]2CC[C@@H](NC(=O)c3cc(F)cnc3Oc3cccc(-c4ccc(O)cc4CN(C)C)c3)CC2)n1 [Example 10, N-((1s,4s)-4-(2-(2′-((dimethylamino)methyl)-4′-hydroxybiphenyl-3-yloxy)-5-fluoronicotinamido)cyclohexyl)-6-methylpicolinamide] | 0.0316 nM
10 | Cc1cccc2nc(C(=O)N[C@H]3CC[C@@H](NC(=O)c4cc(F)cnc4Oc4cccc(-c5ccc(O)cc5CN(C)C)c4)CC3)cn12 [Example 11, N-((1s,4s)-4-(2-(2′-((dimethylamino)methyl)-4′-hydroxybiphenyl-3-yloxy)-5-fluoronicotinamido)cyclohexyl)-5-methylimidazo[1,2-a]pyridine-2-carboxamide] | 0.0501 nM
11 | CN(C)Cc1cc(O)ccc1-c1cccc(Oc2ncc(F)cc2C(=O)N[C@H]2CC[C@@H](NC(=O)c3cn4cc(F)ccc4n3)CC2)c1 [Example 12, N-((1s,4s)-4-(2-(2′-((dimethylamino)methyl)-4′-hydroxybiphenyl-3-yloxy)-5-fluoronicotinamido)cyclohexyl)-6-fluoroimidazo[1,2-a]pyridine-2-carboxamide] | 0.0501 nM
12 | O=C(N[C@H]1CC[C@@H](NC(=O)c2cc(F)cnc2Oc2cccc(-c3ccc(O)cc3CN3CCCOCC3)c2)CC1)c1cn2cc(F)ccc2n1 [Example 13, N-((1s,4s)-4-(2-(2′-((1,4-oxazepan-4-yl)methyl)-4′-hydroxybiphenyl-3-yloxy)-5-fluoronicotinamido)cyclohexyl)-6-fluoroimidazo[1,2-a]pyridine-2-carboxamide] | 0.02 nM
13 | Cc1cccc(C(=O)N[C@H]2CC[C@@H](NC(=O)c3cc(F)cnc3Oc3cccc(-c4ccc(O)cc4CN4CCCOCC4)c3)CC2)n1 [Example 14, N-((1s,4s)-4-(2-(2′-((1,4-oxazepan-4-yl)methyl)-4′-hydroxybiphenyl-3-yloxy)-5-fluoronicotinamido)cyclohexyl)-6-methylpicolinamide] | 0.02 nM
14 | Cc1nc(C(=O)N[C@H]2CC[C@@H](NC(=O)c3cc(F)cnc3Oc3cccc(-c4ccc(O)cc4CN4CCCOCC4)c3)CC2)cs1 [Example 15, N-((1s,4s)-4-(2-(2′-((1,4-oxazepan-4-yl)methyl)-4′-hydroxybiphenyl-3-yloxy)-5-fluoronicotinamido)cyclohexyl)-2-methylthiazole-4-carboxamide] | 0.02 nM
15 | Cc1ccc(O)c(C(=O)N[C@H]2CC[C@@H](NC(=O)c3cc(F)cnc3Oc3cccc(-c4ccc(O)cc4CN4CCCOCC4)c3)CC2)c1 [Example 16, 2-(2′-((1,4-oxazepan-4-yl)methyl)-4′-hydroxybiphenyl-3-yloxy)-5-fluoro-N-((1s,4s)-4-(2-hydroxy-5-methylbenzamido)cyclohexyl)nicotinamide] | 0.0316 nM
16 | CN(C)C1(C(=O)NC2CCC(NC(=O)c3cc(F)cnc3Oc3cccc(-c4ccc(O)cc4CN4CCOCC4)c3)CC2)CC1 (stereo not drawn) [Example 17, N-((1s,4s)-4-(1-(dimethylamino)cyclopropanecarboxamido)cyclohexyl)-5-fluoro-2-(4′-hydroxy-2′-(morpholinomethyl)biphenyl-3-yloxy)nicotinamide] | 1.58 nM
17 | Cc1cccc2nc(C(=O)N[C@H]3CC[C@@H](NC(=O)c4cc(F)cnc4Oc4cccc(-c5ccc(O)cc5CN5CCOCC5)c4)CC3)cn12 [Example 18, N-((1s,4s)-4-(5-fluoro-2-(4′-hydroxy-2′-(morpholinomethyl)biphenyl-3-yloxy)nicotinamido)cyclohexyl)-5-methylimidazo[1,2-a]pyridine-2-carboxamide] | 0.0158 nM
18 | Cc1cc(C(=O)N[C@H]2CC[C@@H](NC(=O)c3cc(F)cnc3Oc3cccc(-c4ccc(O)cc4CN4CCCOCC4)c3)CC2)nn1C [Example 19, 2-(2′-((1,4-oxazepan-4-yl)methyl)-4′-hydroxybiphenyl-3-yloxy)-N-((1s,4s)-4-(1,5-dimethyl-1H-pyrazole-3-carboxamido)cyclohexyl)-5-fluoronicotinamide] | 0.01 nM
19 | Cc1cccc2nc(C(=O)N[C@H]3CC[C@@H](NC(=O)c4cc(F)cnc4Oc4cccc(-c5ccc(O)cc5CN5CCCOCC5)c4)CC3)cn12 [Example 20, N-((1s,4s)-4-(2-(2′-((1,4-oxazepan-4-yl)methyl)-4′-hydroxybiphenyl-3-yloxy)-5-fluoronicotinamido)cyclohexyl)-5-methylimidazo[1,2-a]pyridine-2-carboxamide] | 0.0316 nM
20 | O=C(N[C@H]1CC[C@@H](NC(=O)c2cc(F)cnc2Oc2cccc(-c3ccc(O)cc3CN3CCSCC3)c2)CC1)c1cn2cc(F)ccc2n1 [Example 21, 6-fluoro-N-((1s,4s)-4-(5-fluoro-2-(4′-hydroxy-2′-(thiomorpholinomethyl)biphenyl-3-yloxy)nicotinamido)cyclohexyl)imidazo[1,2-a]pyridine-2-carboxamide] | 0.0501 nM
21 | Cc1cc(C(=O)N[C@H]2CC[C@@H](NC(=O)c3cc(F)cnc3Oc3cccc(-c4ccc(O)cc4CN4CCSCC4)c3)CC2)nn1C [Example 22, N-((1s,4s)-4-(1,5-dimethyl-1H-pyrazole-3-carboxamido)cyclohexyl)-5-fluoro-2-(4′-hydroxy-2′-(thiomorpholinomethyl)biphenyl-3-yloxy)nicotinamide] | 0.0398 nM
22 | Cc1nc(C(=O)N[C@H]2CC[C@@H](NC(=O)c3cc(F)cnc3Oc3cccc(-c4ccc(O)cc4CN4CCCCCC4)c3)CC2)cs1 [Example 23, N-((1s,4s)-4-(2-(2′-(azepan-1-ylmethyl)-4′-hydroxybiphenyl-3-yloxy)-5-fluoronicotinamido)cyclohexyl)-2-methylthiazole-4-carboxamide] | 0.316 nM
23 | Cc1nc(C(=O)N[C@H]2CC[C@@H](NC(=O)c3cc(F)cnc3Oc3cccc(-c4ccc(O)cc4CN4C[C@@H](C)O[C@@H](C)C4)c3)CC2)cs1 [Example 24, N-((1s,4s)-4-(2-(2′-(((2S,6R)-2,6-dimethylmorpholino)methyl)-4′-hydroxybiphenyl-3-yloxy)-5-fluoronicotinamido)cyclohexyl)-2-methylthiazole-4-carboxamide] | 0.1 nM
24 | Cc1nc(C(=O)N[C@H]2CC[C@@H](NC(=O)c3cc(F)cnc3Oc3cccc(-c4ccc(O)cc4CN4CCN(C(C)C)CC4)c3)CC2)cs1 [Example 25, N-((1s,4s)-4-(5-fluoro-2-(4′-hydroxy-2′-((4-isopropylpiperazin-1-yl)methyl)biphenyl-3-yloxy)nicotinamido)cyclohexyl)-2-methylthiazole-4-carboxamide] | 3.16 nM
